# Laboratory results from US9750817B2, “Amphotericin B derivatives” (priority 2015, dated 2017).
# Assays:
# A. fumigatus (Af 293) = assay: MIC of compound 6, AMB and FMOC-6; format: cell-based, Aspergillus fumigatus
# Procedure: (§1) Efficacy was evaluated by measuring minimum inhibitory concentration (MIC) and minimum fungicidal concentration (MFC) values for fungal isolates. Testing of isolates was performed according to the Clinical & Laboratory Standards Institute (CLSI) method. (CLSI. 2008. M27-A3 Reference method for broth dilution antifungal susceptibility testing of yeasts; Approved Standard—3rd edition. Clinical and Laboratory Standards Institute, Wayne). RPMI MOPS media was used throughout the experiment as growth and dilution media. Spores and yeast cells were harvested in 0.05% Tween from 24-48 h and cultures were grown in rich yeast extract-agar-glucose (YAG) medium (composed of: 0.5% w/v yeast extract, 1% w/v glucose, 10 millimolar (mM) MgCl2, supplemented with 0.1% v/v trace elements solution, and 0.2% v/v vitamin mix). The spores and the yeast cells were counted and diluted to a final concentration of 2.5×10^4 per ml. A stock solution of 5 mg/ml was prepared in dimethylsulfoxide for free AMB. Compounds 4 and 6 were prepared in sterile saline. Double dilutions of each drug were performed in 100 μL volume of RPMI-MOPS in 96 well plates beginning with a final concentration of 32 micrograms (μg)/well of each drug to 0.06 μg/well. 2500 spores or yeast cells were added to each well. Results were recorded 48 h post incubation at 37° C. […] The MFC was defined as the lowest drug concentration that yielded three or fewer colonies (i.e. 99% of the inoculum was killed).
# (§2) In addition, the amine protected equivalent of compound 6 in which the amine of compound 6 was protected with an FMOC group was tested (designated FMOC-6) to determine MIC versus AMB and versus compound 6 against A. fumigatus (Af 293) and C. albicans (CBS562).
# C. albicans CBS 562 [1] = assay: In-vitro time-kill study; format: cell-based, Candida albicans; conditions: 2-fold above the MIC, over 2 hours, 30° C.
# Procedure: In time-kill studies, C. albicans CBS 562 was grown overnight from a single colony in 50 ml of liquid YPD medium (composed of 1% (w/v) yeast extract, Difco, 2% w/v peptone, Difco, and 2% w/v dextrose, Merck) at 30° C. On the next day, the starter was diluted 1:100 in the same medium and grown to an optical density at 600 nanometers (OD600 nm) of 0.5-0.6. Then, cells were counted and diluted to 10^6 cells/ml in YPD. Compound 6 and amphotericin B (AMB) were added at concentrations 2-fold above the MIC determined for this strain (2 and 0.5 μg/ml, respectively) and shaken at 30° C. At different time points (0, 15 min, 30 min, 1 h, 2 h) samples were removed, diluted and plated on YPD agar (2% agar) plates. Colonies were counted after incubation for 24 h at 30° C. Control measurements included untreated C. albicans cells and cells treated with AMB. All time-kill curve studies were conducted in duplicate and in three independent experiments.
# C. albicans CBS 562 [2] = assay: Experimental systemic murine candidiasis, survival; format: in vivo, mice; conditions: four daily injections, 24 days
# Procedure: Reference is Made to FIG. 5. Efficacy of PAD-AMB was Tested on Naïve 6 Week Old female ICR mice (n=20). Experimental systemic murine candidiasis was induced by intravenous inoculation of C. albicans CBS 562 into the tail vein using an inoculum of 5×10^4 cells in 0.2 ml per mouse. Fungal count was determined by microscopic counts on a haemocytometer. Treatment began 24 h after inoculation of C. albicans and consisted of four consecutive daily injections of Compound 6 at a range of 1.75-8.75 mg/kg/day relative to mouse body weight. Control groups included infected untreated mice and mice treated with AMB (1 mg/kg/day body weight). Survival and mouse body weight were monitored for 24 days. Survival for the various mouse groups is shown graphically in FIG. 5.
# ICR mice = assay: In vivo toxicity, intravenous injection; conditions: for LD50 / Maximum Dose: tail vein
# Procedure: In-vivo toxicity was determined in mice using 6 week old female ICR mice (n=6). Different concentrations of each formulation were injected intravenously through the tail vein, 0.2 ml per mouse, until death was observed. PAD-AMB conjugates were prepared in sterile saline solution and were filtered through 0.45-micrometer pore-size cellulose acetate sterile filters prior to injection.
# [3] = Solubility in double-distilled water; format: physicochemical; conditions: double-distilled water
# Procedure: Physical characteristics of AMB derivatives and of AMB were tested, including solubility.
# C. albicans (CBS562) = assay: MIC of compound 6, AMB and FMOC-6; format: cell-based, Candida albicans
# Procedure: as §1, §2
# [4] = system: mouse embryonic fibroblasts (MEFs); assay: MTT viability assay in mouse embryonic fibroblasts; format: cell-based
# Procedure: Reference is made to FIG. 4C. Mouse embryonic fibroblasts were used in this example. 1×10^4 mouse embryonic fibroblasts (MEFs) per well were seeded in 96-well plates and incubated at 37° C. After 24 h the media was replaced with 100 μl culture medium containing serial dilutions of AMB, compounds 4 or 6, or left untreated. After 24 h, the media was replaced by fresh media (100 μl per well) containing 1 mg/ml MTT (3-(4,5-Dimethylthiazol-2-yl)-2,5-Diphenyltetrazolium Bromide, ((Biological Industries, Israel)) reagent and the cells were incubated for an additional 3 h at 37° C. MTT-formazan crystals were dissolved by the addition of 100 μl per well of extraction solution (20% SDS, 50% N,N-dimethyl formamide (DMF), pH=4.7) and incubation for 16 h at 37° C. Absorbance at 570 nm was recorded on a Biotek Synergy HT plate reader.
# The results were expressed as the percentage of living cells relative to the untreated control and are depicted in FIG. 4C. The inhibition concentration (IC50) value is the concentration of the compound which inhibited cell growth by 50%.
# C. albicans = assay: Fungal burden in kidneys of infected mice; format: in vivo; conditions: AMB 1 mg/kg; Compound 6 1.75, 3.5 and 7 mg/kg
# Procedure: Reference is made to FIGS. 6A-E. ICR female mice were inoculated with C. albicans in groups of 3 as described in example 6B and were killed 48 hours later for assessment of fungal burden. One kidney and the spleen were removed aseptically from each animal and homogenized in 1 mL of sterile normal saline. Serial 10-fold dilutions of the homogenates were spread on YAG plates, and colony-forming units (CFU)/organ was determined from the colony count after 24 hours incubation at 37° C. All mouse experiments were performed in duplicates.
# At necropsy, fungal burden in mouse tissues was evaluated. […] FIGS. 6C-E show micrographs of mice treated with Compound 6 at dosages of 1.75 mg/kg, 3.5 mg/kg and 7 mg/kg, respectively.
Structure (SMILES),MIC (A. fumigatus (Af 293)) [µg/mL],time-kill activity (fungal presence) (C. albicans CBS 562 [1]),mice rescued (survival) (C. albicans CBS 562 [2]; 1 mg/kg/day),"LD50 (ICR mice; female ICR mice, intravenous)","Maximum Dose (ICR mice; female ICR mice, intravenous) [mg/kg]",outcome at twice the LD50 (ICR mice; mice injected at twice the LD50),maximum tolerated dose (ICR mice; mouse),Solubility [3] [µg/mL],MIC (C. albicans (CBS562)) [µg/mL],"IC50 (concentration which inhibited cell growth by 50%) ([4]; 24 h exposure, MTT) [µg/mL]",fungal hyphae in kidney sections (Fontana-Masson silver staining) (C. albicans),mice rescued (survival) (C. albicans CBS 562 [2]; 3.5 mg/kg),mice rescued (survival) (C. albicans CBS 562 [2]; 7 mg/kg),"mouse LD50 fold higher than AMB (ICR mice; female ICR mice, intravenous) [fold]","signs of toxicity at the highest injectable doses (ICR mice; female ICR mice, intravenous)",times less toxic than AMB ([4]; from IC50)
"C[C@@H]1[C@H](O)[C@@H](C)/C=C/C=C/C=C/C=C/C=C/C=C/C=C/[C@H](O[C@@H]2O[C@H](C)[C@@H](O)[C@H](N)[C@@H]2O)C[C@@H]2O[C@](O)(C[C@@H](O)C[C@@H](O)[C@H](O)CC[C@@H](O)C[C@@H](O)CC(=O)O[C@H]1C)C[C@H](O)[C@H]2C(=O)O [AMB, Amphotericin B]",0.5,reducing the fungal presence,10 of the 12,1.2 mg/kg,1.1,die instantaneously,about 1 mg/kg body weight per day,<1,0.25,6.6,barely detectable,,,,,
"COC(=O)C1C(O)CC2(O)CC(O)CC(O)C(O)CCC(O)CC(O)CC(=O)OC(C)C(C)C(O)C(C)C=CC=CC=CC=CC=CC=CC=CC(OC3OC(C)C(O)C(NC(=O)CCOCCOCCOCCOCCOCCOCCOCCOCCN)C3O)CC1O2 (centres unmarked) [Compound 6, amphotericin B amide, methyl ester-PEG(8)-amine]",2,reducing the fungal presence,,not reached,42,,,700,2,,barely detectable,the same level of efficacy,rescued all of the mice,≥ 40,did not show any signs of toxicity,at least 600 times
